Data: patent US20220057378A1, “MICROBIAL MICROFLUIDIC BIOSENSOR” (priority 2015, published 2022)
Like-named read-outs stand apart in the source and are kept apart here.

Experiments:
[1] = tested on: As3; test: microplate specificity test with on- and off-target heavy metals (fluorescence); assay type: cell-based, E. coli; conditions: on-target = 1, no-toxin control = 0; As 1.3, Cd 0.44, Cr(VI) 2, Cu 20, Pb 1, Hg 0.1, Co 20, Fe 500, Ni 1.7, Zn 7.6 μM
From the text: (§1) Each column represents the fluorescence response of a strain to the on-target metal (normalized to “1”) and all off-target metals, where “0” represents the unchanged response for the no-toxin control.
(§2) Although the ability to sense cobalt, iron, nickel, and zinc is of secondary importance, these heavy metals were included as potential off-target inducers because they may be present in the natural water supply under test. […] This combinatorial logic was implemented in algorithms.

[2] = tested on: Cd1; test: as above; assay type: cell-based, E. coli; conditions: on-target = 1, no-toxin control = 0; As 1.3, Cd 0.44, Cr(VI) 2, Cu 20, Pb 1, Hg 0.1, Co 20, Fe 500, Ni 1.7, Zn 7.6 μM
From the text: as §1, §2

[3] = tested on: Pb2; test: as above; assay type: cell-based, E. coli; conditions: on-target = 1, no-toxin control = 0; As 1.3, Cd 0.44, Cr(VI) 2, Cu 20, Pb 1, Hg 0.1, Co 20, Fe 500, Ni 1.7, Zn 7.6 μM
From the text: as §1, §2

[4] = tested on: Cr5; test: as above; assay type: cell-based, E. coli; conditions: on-target = 1, no-toxin control = 0, As 1.3, Cd 0.44, Cr(VI) 2, Cu 20, Pb 1, Hg 0.1, Co 20, Fe 500, Ni 1.7, Zn 7.6 μM
From the text: as §1, §2

[5] = tested on: Cu1; test: as above; assay type: cell-based, E. coli; conditions: on-target = 1, no-toxin control = 0; As 1.3, Cd 0.44, Cr(VI) 2, Cu 20, Pb 1, Hg 0.1, Co 20, Fe 500, Ni 1.7, Zn 7.6 μM
From the text: as §1, §2

[6] = tested on: E. coli MG1655 strains Co2-Co4 and Co6-Co8; test: plate reader validation of cobalt-sensing promoters (GFP fluorescence); assay type: cell-based; conditions: microplate wells, various concentrations of cobalt
[7] = tested on: E. coli MG1655/Pb7; test: 18-strain chip induction; assay type: cell-based
From the text: (§3) In an embodiment herein, the toxin response data across 18 unique sensing strains were also collected using a new chip design that houses 16 E. coli strains and 2 B. subtilis strains. The B. subtilis NCIB 3610/Amm3 construct is a “lights-off” sensor, meaning that GFP production drops when ammonium is introduced, following a slight increase due to faster growth on this preferred nitrogen source. […] By combining these sensor responses, we can identify cobalt by the unique response of Pb7 alone and lead by the unique combination of Zn6, Pb7, and Pb8 responses.

[8] = tested on: E. coli MG1655; assay type: cell-based; conditions: for Number DE Genes: false discovery rate below 1%
From the text: RNA-Seq results for promoter activation in E. coli MG1655 in response to single and multiple toxin exposures at low and high concentrations: Our analysis of the sequencing data from RNA-Seq experiments to determine candidate genes that are induced upon toxin exposure consisted of three main tasks: sequence alignment, quantification of gene expression, and identification of differentially expressed genes. Sequence alignment: Reads were aligned to the reference E. coli K-12 substr. MG1655 genome using a tolerance of at most two mismatches per alignment to protect against sequencing errors. The alignment was performed using Bowtie software, 5 which is known to be very efficient in aligning reads to a reference genome. Without being limiting, Bowtie software 5 can be used for the alignment. Those skilled in the art will appreciate that there are many such software programs for performing alignments.
Quantification of gene expression: The expression level of each gene was determined as a function of the number of aligned reads mapping to the gene. […] Additionally, we implemented our own algorithms for sequence alignment and quantification of gene expression in order to crosscheck all results.
Identification of differentially expressed genes: Finally, a set of statistical and information theory algorithms were applied in order to extract not only differentially expressed (DE) genes for each toxin with respect to the control samples (pure water) but also toxin-specific genes. DESeq is a standard tool for identifying DE genes that allowed us to select sensitive genes with differential expression between the control samples (pure water) and the cells exposed to toxin. It assumes that the number of counts for each gene across experimental replicates follows a negative binomial distribution (8, 9). We considered genes with a False Discovery Rate (FDR) lower than 1% as DE in order to ensure statistically robust DE genes. […] Additionally, genes with the largest number of counts and expression levels are preferable in order to maximize the signal-to-noise ratio. When it is not possible to find toxin-specific genes, the next generation of good candidates is formed by those genes satisfying the above properties for a small subset of toxins (multiple-toxin response). It is desirable to have single-toxin-specific genes for several of the toxins in the combination in order to determine toxin-specific multi-gene-responses by means of logical operations. […] Therefore, we have developed information theoretic measures to improve the toxin separability. The core idea of the approach is that low entropies (or highly informative genes) correspond to toxin-specific genes, while large entropies (low information) are associated with scenarios in which DE fold-changes across different toxins are similar and should be discarded.
(§4) Milestone 2.1: Expose target cells to toxins of interest over four orders of magnitude of concentration and extract RNA: Three strains of bacteria were exposed to relevant levels of all toxins and extracted RNA. The toxin exposure protocol involves first growing a culture of bacterial cells to mid-log phase (OD≤0.2). […] Finally, cellular RNA was stabilized using Qiagen RNA Protect reagent, the cells were centrifuged, and the pellet was frozen at −80° C. To investigate the cellular RNA response to toxin insult, we exposed E. coli MG1655, E. coli LABEC01, and B. subtilis 168 cells to the toxins and concentrations shown in Table 7 and extracted RNA.
Milestone 2.5: Prepare isolated RNA for Illumina sequencing using vendor provided reagents and carry out sequencing: We have prepared libraries and carried out sequencing for all toxins of interest.

[9] = tested on: Hg3; test: microplate specificity test with on- and off-target heavy metals (fluorescence); assay type: cell-based, E. coli; conditions: on-target = 1, no-toxin control = 0, As 1.3, Cd 0.44, Cr(VI) 2, Cu 20, Pb 1, Hg 0.1, Co 20, Fe 500, Ni 1.7, Zn 7.6 μM
From the text: as §1, §2

[10] = tested on: cellular esterases; test: inhibition of cellular esterase activity (CFDA cleavage) in gill chip; assay type: cell-based, S. cerevisiae; conditions: 0.725 g/l malathion; two sequential exposures; recovers subsequently
Description: Additional constructs based on this promoter were generated while collecting on-chip response data for all other sensing strains using the sensor prototypes was performed. […] S. cerevisiae was loaded into a gill chip and CFDA (carboxyfluorescein diacetate) was added to the growth medium. […] Because CFDA breaks down in the medium over time thereby increasing the background signal, fresh medium+CFDA was introduced at 1,500 and 2,000 min. This explains the drift in baseline GFP during this period, which can be eliminated in subsequent experiments by mixing dye and medium on-chip.

[11] = tested on: GFP sensor strains; test: SVM classification of GFP sensor responses (toxin / no toxin); assay type: cell-based; conditions: from classification accuracy and ROC curves
From the text: Computational models to determine the threshold of detection for specific sensors based on models of experimental GFP responses. We used machine learning techniques to determine the relationships between the GFP output signal and the presence of a toxin. We have created a database containing the collected sensor response data. We have quantified the GFP threshold of detection for each sensor construct. We have constructed Receiver Operating Characteristic (ROC) curves for each sensor to achieve robust sensing. We constructed machine learning models capable of inferring the relationships between the GFP sensor responses and the presence or absence of a toxin at a given concentration. The algorithm learns these relationships from a set of training samples (GFP sensor responses) defined by the set of experimental conditions from which they were generated. The aim of the algorithm is to provide a general method capable of determining the experimental conditions associated with GFP sensor responses through the use of historical data. Specifically, we have built classification models based on Support Vector Machines (SVMs), which is one of the most popular classifiers due to its excellent performance in many contexts and its solid mathematical basis (1). For each toxin and concentration, we solved a binary classification problem in which the positive class represents the presence of the toxin in water and the negative class is associated with clean environments. Patterns were constructed with features containing GFP sensor responses at various timestamps to capture the temporal dynamics of the GFP signal. The optimal meta-parameters of the SVM classifier were determined by applying a 5-crossvalidation during the training phase (2). In order to have a reliable estimate of the performance of the model when deployed in real environments, we measured its performance over a set of samples (test patterns) not seen during the training phase. The SVM's performance was determined by the percentage of test samples correctly labeled as toxin/no toxin (classification accuracy). 80% of samples were used for training the SVM models and the remaining 20% of samples was used to evaluate their effectiveness. We generated 20 random training/test partitions to have an estimate of performance independent of the data partition.
Specifically, we have built classification models based on Support Vector Machines (SVMs), which is one of the most popular classifiers due to its excellent performance in many contexts and its solid mathematical basis. For each toxin and concentration, we solved a binary classification problem in which the positive class represents the presence of the toxin in water and the negative class is associated with clean environments. Patterns were constructed with features containing GFP sensor responses at various timestamps to capture the temporal dynamics of the GFP signal. The optimal meta-parameters of the SVM classifier were determined by applying a 5-crossvalidation during the training phase.
In order to have a reliable estimate of the performance of the model when deployed in real environments, we measured its performance over a set of samples (test patterns) not seen during the training phase. The SVM's performance was determined by the percentage of test samples correctly labeled as toxin/no toxin (classification accuracy). 80% of samples were used for training the SVM models and the remaining 20% of samples was used to evaluate their effectiveness. We generated 20 random training/test partitions based on data collected in single-strain chips (no crosstalk data) to have an estimate of performance.

[12] = tested on: Mall construct; test: malathion construct loaded into the sensor device; assay type: cell-based, E. coli; conditions: prototype sensor
[13] = tested on: B. subtilis NCIB 3610/Amm3; test: 18-strain chip induction; assay type: cell-based; conditions: 5 ppm NH4-N, GFP production drops
From the text: as §3

[14] = tested on: B. subtilis 168; test: RNA-Seq after toxin exposure; assay type: cell-based
Description: as §4
We used RNA-Seq to verify the nasB promoter in B. subtilis 168 as a sensitive and specific promoter for the last remaining toxin, ammonium (see FIG. 2). […] This is desirable because, unlike the other water toxins of interest, ammonium is expected to increase the growth rate of biosensor cells. In this situation, a “lights-on” sensor could be triggered by any substance that increases the growth rate and resulting GFP production ability of cells, whereas a “lights-off” sensor remains immune to this effect.

Molecule	fluorescence response of strain As3 (on-target arsenic) [1]	fluorescence response of strain Cd1 (on-target cadmium) [2]	fluorescence response of strain Pb2 (on-target lead) [3]	fluorescence response of strain Cr5 (on-target chromium(VI)) [4]	fluorescence response of strain Cu1 (on-target copper) [5]	Number DE Genes ([8]; high concentration)	Number DE Genes ([8]; low concentration)	fluorescence response of strain Hg3 (on-target mercury) [9]	threshold of detection [11]	other results
[Co] [Cobalt]	0.30	0.67	0.80	−0.11	−0.01	1274	609			GFP response to cobalt in the growth medium [6]: significantly respond; GFP response of strain Pb7 [7]: responds sensitively; response of the dadA promoter ([8]; RNA-Seq mean fold change): specific to cobalt alone; response of the hmp promoter ([8]; RNA-Seq mean fold change): specific to cobalt alone; response of the ilvB promoter ([8]; RNA-Seq mean fold change): specific to cobalt alone; response of the lipA promoter ([8]; RNA-Seq mean fold change): specific to cobalt alone; response of the mmuP promoter ([8]; RNA-Seq mean fold change): specific to cobalt alone; response of the soxR promoter ([8]; RNA-Seq mean fold change): specific to cobalt alone; response of the tehA promoter ([8]; RNA-Seq mean fold change): specific to cobalt alone; response of the ygbA promoter ([8]; RNA-Seq mean fold change): specific to cobalt alone; response of the yjbJ promoter ([8]; RNA-Seq mean fold change): specific to cobalt alone; response of the yqfA promoter ([8]; RNA-Seq mean fold change): specific to cobalt alone
[Fe] [Iron]	−0.06	−0.31	0.96	0.86	0.17	70	32	−0.38		fluorescence response of strain Cr5 (on-target chromium(VI)) ([4]; listed as iron): sensitive
CCOC(=O)CC(SP(=S)(OC)OC)C(=O)OCC (stereo not shown) [Malathion, malathion]						41	370		72.5 mg/L	cell fluorescence (CFDA cleavage by cellular esterases) [10]: significantly drops; response of the nemR promoter ([8]; RNA-Seq mean fold change): responds to high concentrations; response of Mall construct in sensor device [12]: did not produce a discernable response
[Ni] [Nickel]	−0.08	−0.08	0.16	−0.35	−0.05	95	43			
[Zn] [Zinc]	−0.14	−0.09	1.06	0.35	−0.08	596	24	0.78		fluorescence response of strain Hg3 (on-target mercury) ([9]; listed as zinc): sensitive; response of the mntH promoter ([8]; RNA-Seq mean fold change): high concentrations of zinc alone; response of the shiA promoter ([8]; RNA-Seq mean fold change): high concentrations of zinc alone; response of the yjjZ promoter ([8]; RNA-Seq mean fold change): responds monotonically to increasing concentrations; response of the zntA promoter ([8]; RNA-Seq mean fold change): shows sensitivity to low and high concentrations; response of the zraP promoter ([8]; RNA-Seq mean fold change): responds specifically and monotonically to increasing concentrations
Ammonium									one	GFP response of Amm3 strain (lights-off sensor) [13]: respond sensitively; response of the nasB promoter [14]: sensitive and specifically downregulated
